Article PMC12584665, “In vitro and in vivo efficacy of vancomycin against Elizabethkingia species and the impact of increased vancomycin MICs” (Microbiology Spectrum, 2025)
≈ marks a conversion by molar mass, not a printed value. Read-outs that look alike come from different tables or passages of the source.

Key:
[1] = tested on: Elizabethkingia anophelis; assay: Broth microdilution (BMD) MIC; type: cell-based
Text: Eighteen E. anophelis clinical isolates from the nationwide surveillance program (Taiwan Surveillance of Antimicrobial Resistance) were well characterized in our previous study ([7]) and were selected for susceptibility testing and minimum bactericidal concentration (MBC) assays. Among them, five isolates with different clonality (underlined strains in Fig. S1) were selected for the time-kill assays and in vivo experiments.
Broth microdilution, disc diffusion, Etest, and agar dilution assays were conducted following CLSI guidelines to determine vancomycin MICs ([8]). […] Criteria for Staphylococcus spp. were not adopted due to the lack of a zone diameter breakpoint. MBCs were determined following CLSI guidelines ([8]).

[2] = tested on: Elizabethkingia anophelis; assay: Galleria mellonella (wax moth) infection survival model; type: in vivo; details: 72 h
Protocol: (§1) In vivo efficacy was assessed by wax moth (Galleria mellonella), murine pneumonia, and murine thigh infection models following the protocols of our previous study ([2]). The Animal Ethics Committee of Taiwan’s National Health Research Institutes approved the murine pneumonia and thigh infection models.
G. mellonella was reared at the National Health Research Institutes of Taiwan. Caterpillars in the final instar larval stage (weight ca. 250 mg) were used. […] A 10 µL aliquot of E. anophelis at the predetermined lethal dose was injected into the hemocoel of each caterpillar via the last left proleg. Antibiotics were administered once into another proleg at the indicated time points; vancomycin (5, 10, or 20 mg/kg, 2 h post-inoculation); other glycopeptides (teicoplanin, 10 mg/kg, 30 min post-inoculation; dalbavancin, 8.75 mg/kg, 2 h post-inoculation; oritavancin, 15 mg/kg, 1 h post-inoculation) ([11][–][13]); or daptomycin (10 mg/kg, 2 h post-inoculation) ([13]). Each treatment group contained 6–8 caterpillars. A control group injected with sterile PBS was included to monitor for trauma-related mortality. Caterpillars were incubated at 37°C, and survival was recorded twice daily for 72 h.

[3] = tested on: Elizabethkingia anophelis; assay: Murine pneumonia model; type: in vivo, C57BL/6J mice; details: 50 mg/kg intraperitoneal twice daily
Protocol: as §1
For the pneumonia model, a bacterial suspension was mixed with 5% mucin from porcine stomach (type 3; Sigma-Aldrich, Saint Louis, USA). Seven-week-old C57BL/6J mice were anesthetized with isoflurane for 10 min. For each strain, the inoculum corresponded to the lowest dose that caused >80% mortality in preliminary testing. This inoculum (10⁶–10⁸ cfu, depending on strain) was delivered intratracheally to induce pneumonia. Two hours thereafter, mice received either high or human-equivalent doses of subcutaneous vancomycin (100 mg/kg or 25 mg/kg, respectively) or intraperitoneal teicoplanin (50 mg/kg) ([17]) twice daily for 3 days. Each group contained eight mice, and survival was monitored for 3 days.

[4] = tested on: Elizabethkingia anophelis; assay: Murine neutropenic thigh infection model; type: in vivo, C57BL/6J mice; details: 50 mg/kg intraperitoneal, 2 h and 14 h after inoculation
Protocol: as §1
For the thigh infection model, seven-week-old C57BL/6J mice were rendered neutropenic by intraperitoneal injections of cyclophosphamide (Cytoxan; Bristol-Myers Squibb, Princeton, NJ, USA) 4 days (150 mg/kg) and 1 day (100 mg/kg) before bacterial inoculation. A 30 µL aliquot containing the E. anophelis (10^7 cfu) was injected into each of the two rear thighs. Vancomycin (25 mg/kg or 100 mg/kg, subcutaneous) or teicoplanin (50 mg/kg, intraperitoneal) was administered 2 h and 14 h after inoculation. Mice were sacrificed 24 h post-inoculation, and homogenized thigh tissue was plated in serial 10-fold dilutions on brain-heart infusion agar to determine bacterial counts. Each mouse, not each thigh, was considered an individual data point.

[5] = Serum drug levels in mice (LC-MS/MS); type: in vivo; details: single dose 50 mg/kg intraperitoneal teicoplanin vs 25 or 100 mg/kg subcutaneous vancomycin
Protocol: Fifty microliters of aliquots of murine serum was mixed with 100 µL acetonitrile. The mixture was vortexed and then centrifuged at 15,000 × g for 20 min in a Beckman Coulter Microfuge 22R Centrifuge at room temperature. The supernatant was transferred to a clean tube, and then 15 µL of the supernatant was injected onto LC-MS/MS. The chromatographic system consisted of an Agilent 1200 series LC system and an Agilent ZORBAX Eclipse XDB-C8 column (5 µm, 3.0 × 150 mm) interfaced to an MDS Sciex API3000 tandem mass spectrometer. The MS/MS ion transitions monitored were m/z 725/144 for vancomycin. A gradient HPLC method was employed for separation. Mobile phase A consisted of 10 mM ammonium acetate aqueous solution containing 0.1% formic acid and mobile phase B consisted of acetonitrile. The gradient profile was as follows (min/%B): 0.0–0.9/5, 1.0–2.0/50, 2.1–3.7/95, 3.8–5.0/5. The flow rate was set at 1.5 mL/min.

[6] = Elizabethkingia anophelis, E. anophelis clinical isolate 2008N05-106, read-out: MIC, BMD
[7] = Elizabethkingia anophelis, E. anophelis clinical isolate 2008S01-229, read-out: MIC, BMD
[8] = Elizabethkingia anophelis, E. anophelis clinical isolate 2014C06-157, read-out: MIC, BMD
[9] = Elizabethkingia anophelis, E. anophelis clinical isolate 2016N17-576, read-out: MIC, BMD
[10] = Elizabethkingia anophelis, E. anophelis clinical isolate 2018C04-213, read-out: MIC, BMD
[11] = Elizabethkingia anophelis, E. anophelis clinical isolate 2018C04-224, read-out: MIC, BMD
[12] = Elizabethkingia anophelis, E. anophelis clinical isolate 2018C07-210, read-out: MIC, BMD
[13] = Elizabethkingia anophelis, E. anophelis clinical isolate 2018C07-234, read-out: MIC, BMD
[14] = Elizabethkingia anophelis, E. anophelis clinical isolate 2018C08-127, read-out: MIC, BMD
[15] = Elizabethkingia anophelis, E. anophelis clinical isolate 2018E03-151, read-out: MIC, BMD
[16] = Elizabethkingia anophelis, E. anophelis clinical isolate 2018E04-135, read-out: MIC, BMD
[17] = Elizabethkingia anophelis, E. anophelis clinical isolate 2018N16-057, read-out: MIC, BMD
[18] = Elizabethkingia anophelis, E. anophelis clinical isolate 2018N17-036, read-out: MIC, BMD
[19] = Elizabethkingia anophelis, E. anophelis clinical isolate 2018N17-073, read-out: MIC, BMD
[20] = Elizabethkingia anophelis, E. anophelis clinical isolate 2018N17-153, read-out: MIC, BMD
[21] = Elizabethkingia anophelis, E. anophelis clinical isolate 2018N21-226, read-out: MIC, BMD
[22] = Elizabethkingia anophelis, E. anophelis clinical isolate 2018S09-023, read-out: MIC, BMD
[23] = Elizabethkingia anophelis, E. anophelis clinical isolate 2018S11-172, read-out: MIC, BMD
[24] = E. anophelis used in the G. mellonella assays of Fig. S4, isolate and method not given

C[C@H]1COc2c(N3CCN(C)CC3)c(F)cc3c(=O)c(C(=O)O)cn1c23 [Levofloxacin]
MIC [1, 6]: > 8 µg/mL
MIC [1, 7]: ≤ 1 µg/mL
MIC [1, 8]: > 8 µg/mL
MIC [1, 9]: > 8 µg/mL
MIC [1, 10]: > 8 µg/mL
MIC [1, 11]: > 8 µg/mL
MIC [1, 12]: > 8 µg/mL
MIC [1, 13]: > 8 µg/mL
MIC [1, 14]: 2 µg/mL (≈ 5.53 µM)
MIC [1, 15]: 2 µg/mL (≈ 5.53 µM)
MIC [1, 16]: ≤ 1 µg/mL
MIC [1, 17]: ≤ 1 µg/mL
MIC [1, 18]: > 8 µg/mL
MIC [1, 19]: > 8 µg/mL
MIC [1, 20]: > 8 µg/mL
MIC [1, 21]: ≤ 1 µg/mL
MIC [1, 22]: ≤ 1 µg/mL
MIC [1, 23]: 2 µg/mL (≈ 5.53 µM)

CN(C)c1ccc(O)c2c1C[C@H]1C[C@H]3[C@H](N(C)C)C(O)=C(C(N)=O)C(=O)[C@@]3(O)C(O)=C1C2=O [Minocycline]
MIC [1, 6]: ≤ 2 µg/mL
MIC [1, 7]: ≤ 2 µg/mL
MIC [1, 8]: ≤ 2 µg/mL
MIC [1, 9]: ≤ 2 µg/mL
MIC [1, 10]: ≤ 2 µg/mL
MIC [1, 11]: ≤ 2 µg/mL
MIC [1, 12]: ≤ 2 µg/mL
MIC [1, 13]: ≤ 2 µg/mL
MIC [1, 14]: ≤ 2 µg/mL
MIC [1, 15]: ≤ 2 µg/mL
MIC [1, 16]: ≤ 2 µg/mL
MIC [1, 17]: ≤ 2 µg/mL
MIC [1, 18]: ≤ 2 µg/mL
MIC [1, 19]: ≤ 2 µg/mL
MIC [1, 20]: ≤ 2 µg/mL
MIC [1, 21]: ≤ 2 µg/mL
MIC [1, 22]: ≤ 2 µg/mL
MIC [1, 23]: ≤ 2 µg/mL

CN[C@H]1C(=O)N[C@@H]2Cc3ccc(cc3)Oc3cc4cc(c3O[C@@H]3O[C@H](C(=O)O)[C@@H](O)[C@H](O)[C@H]3NC(=O)CCCCCCCCC(C)C)Oc3ccc(cc3Cl)[C@@H](O)[C@@H]3NC(=O)[C@H](NC(=O)[C@@H]4NC(=O)[C@@H](NC2=O)c2cc(cc(O)c2Cl)Oc2cc1ccc2O)c1ccc(O)c(c1)-c1c(O[C@H]2O[C@H](CO)[C@@H](O)[C@H](O)[C@@H]2O)cc(O)cc1[C@@H](C(=O)NCCCN(C)C)NC3=O [dalbavancin]
MICs [1, 24]: 64 mg/L
survival of infected wax moths ([2]; 8.75 mg/kg once, 2 h post-inoculation): no survival benefit

CCCCCCCCCC(=O)N[C@@H](Cc1c[nH]c2ccccc12)C(=O)N[C@H](CC(N)=O)C(=O)N[C@@H](CC(=O)O)C(=O)N[C@@H]1C(=O)NCC(=O)N[C@@H](CCCN)C(=O)N[C@@H](CC(=O)O)C(=O)N[C@H](C)C(=O)N[C@@H](CC(=O)O)C(=O)NCC(=O)N[C@H](CO)C(=O)N[C@@H]([C@H](C)CC(=O)O)C(=O)N[C@@H](CC(=O)c2ccccc2N)C(=O)O[C@@H]1C [daptomycin]
MIC ([1]; E. anophelis used in the G. mellonella assays of Fig. S4, isolate and method not given, read-out: MICs): 128 µg/mL (≈ 79 µM)
survival of infected wax moths ([2]; 10 mg/kg once, 2 h post-inoculation): no survival benefit

CN[C@H](CC(C)C)C(=O)N[C@H]1C(=O)N[C@@H](CC(N)=O)C(=O)N[C@H]2C(=O)N[C@H]3C(=O)N[C@H](C(=O)N[C@H](C(=O)O)c4cc(O)cc(O)c4-c4cc3ccc4O)[C@H](O[C@H]3C[C@](C)(N)[C@@H](O)[C@H](C)O3)c3ccc(c(Cl)c3)Oc3cc2cc(c3O[C@@H]2O[C@H](CO)[C@@H](O)[C@H](O)[C@H]2O[C@H]2C[C@](C)(NCc3ccc(-c4ccc(Cl)cc4)cc3)[C@@H](O)[C@H](C)O2)Oc2ccc(cc2Cl)[C@H]1O [oritavancin]
MIC ([1]; read-out: MICs, E. anophelis used in the G. mellonella assays of Fig. S4, isolate and method not given): 64 µg/mL (≈ 35.7 µM)
survival of infected wax moths ([2]; 15 mg/kg once, 1 h post-inoculation): no survival benefit

Teicoplanin
MIC, BMD ([1]; E. anophelis clinical isolate 2008N05-106): 128 µg/mL
MIC, BMD ([1]; E. anophelis clinical isolate 2008S01-229): 128 µg/mL
MIC, BMD ([1]; E. anophelis clinical isolate 2014C06-157): 128 µg/mL
MIC, BMD ([1]; E. anophelis clinical isolate 2016N17-576): 128 µg/mL
MIC, BMD ([1]; E. anophelis clinical isolate 2018C04-213): 128 µg/mL
MIC, BMD ([1]; E. anophelis clinical isolate 2018C04-224): 128 µg/mL
MIC, BMD ([1]; E. anophelis clinical isolate 2018C07-210): 256 µg/mL
MIC, BMD ([1]; E. anophelis clinical isolate 2018C07-234): 256 µg/mL
MIC, BMD ([1]; E. anophelis clinical isolate 2018C08-127): 128 µg/mL
MIC, BMD ([1]; E. anophelis clinical isolate 2018E03-151): 128 µg/mL
MIC, BMD ([1]; E. anophelis clinical isolate 2018E04-135): 64 µg/mL
MIC, BMD ([1]; E. anophelis clinical isolate 2018N16-057): 128 µg/mL
MIC, BMD ([1]; E. anophelis clinical isolate 2018N17-036): 128 µg/mL
MIC, BMD ([1]; E. anophelis clinical isolate 2018N17-073): 128 µg/mL
MIC, BMD ([1]; E. anophelis clinical isolate 2018N17-153): 128 µg/mL
MIC, BMD ([1]; E. anophelis clinical isolate 2018N21-226): 64 µg/mL
MIC, BMD ([1]; E. anophelis clinical isolate 2018S09-023): 64 µg/mL
MIC, BMD ([1]; E. anophelis clinical isolate 2018S11-172): 64 µg/mL
MICs [1, 24]: 128 mg/L
survival of infected wax moths ([2]; 10 mg/kg once, 30 min post-inoculation): no survival benefit
survival of infected mice [3]: little effect
reduction of bacterial loads in thigh [4]: little effect
concentration in murine serum relative to vancomycin [5]: much higher than that of vancomycin
